Values after ≈ are worked out from the molar mass of the structure shown. One block for each compound: values may come before it.
Key:
P. auriginosa ATCC 27853 = test: MIC by broth dilution method; format: cell-based, P. aeruginosa
Description: (§1) The minimal inhibitory concentration (MIC) of the antibacterial compounds may be determined using the broth dilution method, according to CLSI guidelines. Test compound solutions (or antibiotic solutions used as positive controls) were diluted, serially, with MHB medium. Then, the suspensions of the microorganisms, prepared from overnight cultures of bacteria in the MHB medium, at a concentration of 10^6 CFU/ml, were added to each dilution in a 1:1 ratio. McFarland standards were used as a reference to adjust the turbidity of microorganism suspensions. Growth (or lack thereof) of the microorganisms was determined after incubation for 24 hours at 37° C. by turbidimetry (wavelength of 600 nm). […] The susceptibility test by measurement of MIC was performed in triplicate and repeated three times independently.

hTERT-BJ1 cells = test: Cell viability of normal fibroblasts; format: cell-based; details: 5 μM, normal human fibroblasts, FIG. 6
Description: (§2) The present approach includes methods of confirming cell viability. Persons of skill in the art may select one or more methods for confirming cell viability suitable for the particular embodiment. The inventors initially used the Sulphorhodamine (SRB) assay, which is based on the measurement of cellular protein content. After treatment for 72 hours in 96-well plates, cells were fixed with 10% trichloroacetic acid (TCA) for 1 hour in the cold room, and were dried overnight at room temperature. Then, cells were incubated with SRB for 15 min, washed twice with 1% acetic acid, and air dried for at least 1 hour. Finally, the protein-bound dye was dissolved in a 10 mM Tris, pH 8.8 solution and read using the plate reader at 540-nm. Using the SRB assay, the inventors selected only the compounds depleting ATP levels without prominent cytotoxicity for further analysis. Prominent cytotoxicity was defined as fewer than 30% of cells still on the plate. Of course, embodiments employing other cell viability confirmation methodology may select compounds for further analysis based on other considerations as may be known in the art.
(§3) Based on this analysis, the inventors assessed the functional effects of the three candidates on overall viability in MCF7 cell monolayers and normal human fibroblasts (hTERT-BJ1 cells) (FIG. 6). […]

MCF7 cells [1] = test: Mammosphere formation assay; format: cell-based, human; details: 5 μM, FIG. 5
Source text: The present approach involves methods of testing compounds, and in particular mitoriboscins, for anti-cancer properties. As discussed above, vHTS and computational chemistry may be used to identify candidate mitochondrial inhibitors. Those candidates may be tested for specific anti-cancer properties. For examples, the inventors compared seven candidate compounds in parallel for their ability to inhibit mammosphere formation in MCF7 cells. […] For example, 23/G4 (Group 1) reduced mammosphere formation by 50% at this concentration. Similarly, 24/F9 (Group 2) and 24/D4 (Group 3), both reduced mammosphere formation by ˜90%.

MRSA ATCC 43300 = test: MIC by broth dilution method; format: cell-based, Methicillin-resistant Staphylococcus aureus
Description: as §1, with “nm). MIC 50 and MIC 99 are defined as the minimum inhibitory concentration of the compound required for 50% and 99% inhibition of bacterial growth.” for “nm).”, “independently. Statistical significance was determined using the Student's t-test and values of less than 0.05 were considered significant.” for “independently.”
(§4) In order to determine the minimal inhibitory concentration (MIC) for 24/F9, 24/D4 and 23/G4, the broth dilution method may be performed.

C. albicans = test: MIC by broth dilution method; format: cell-based; details: C. albicans ATCC 13883
Description: as §1, with “nm). MIC 50 and MIC 99 are defined as the minimum inhibitory concentration of the compound required for 50% and 99% inhibition of bacterial growth.” for “nm).”, “independently. Statistical significance was determined using the Student's t-test and values of less than 0.05 were considered significant.” for “independently.”
as §4

MCF7 cell monolayers = test: Cell viability of MCF7 monolayers (SRB); format: cell-based, human; details: FIG. 6
Description: as §2, §3

MCF7 cells [2] = test: Seahorse XF96 metabolic flux analysis (OCR/ECAR); format: cell-based, human
Source text: The present approach further involves methods of functional validation at step S105, during which a compound's function as a mitochondrial inhibitor may be confirmed. A number of methods may be used for functional validation, including, for example, metabolic flux analysis, mammosphere assays, viability assays, and antibiotic (anti-bacterial and/or anti-fungal) activity. For example, the inventors determined extracellular acidification rates (ECAR) and real-time oxygen consumption rates (OCR) for MCF7 cells using the Seahorse Extracellular Flux (XF96) analyzer (Seahorse Bioscience, MA, USA). MCF7 cells were maintained in DMEM supplemented with 10% FBS (fetal bovine serum), 2 mM GlutaMAX, and 1% Pen-Strep. 5,000 cells per well were seeded into XF96-well cell culture plates, and incubated overnight at 37° C. in a 5% CO2 humidified atmosphere. After 24 hours, cells were treated with selected compounds showing ATP-depletion without prominent cytotoxicity at various concentrations (or vehicle alone). After 72 hours of treatment, cells were washed in pre-warmed XF assay media (for OCR measurement, XF assay media was supplemented with 10 mM glucose, 1 mM Pyruvate, 2 mM L-glutamine and adjusted at pH 7.4). Cells were maintained in 175 μL/well of XF assay media at 37° C. in a non-CO2 incubator for 1 hour. During incubation, 25 μL of 80 mM glucose, 9 μM oligomycin, 1M 2-deoxyglucose (for ECAR measurement) and 25 μL of 10 μM oligomycin, 9 μM FCCP, 10 μM rotenone, 10 μM antimycin A (for OCR measurement) in XF assay media was loaded into the injection ports of the XFe-96 sensor cartridge. During the experiment, the instrument injected these inhibitors into the wells at a given time point, while ECAR/OCR was measured continuously. ECAR and OCR measurements were normalized by protein content (using the Sulphorhodamine B assay). Data sets were analyzed by XFe-96 software, using one-way ANOVA and Student's t-test calculations. All experiments were performed in triplicate, and results validated the mitochondrial inhibition effects of mitoriboscin compounds described herein. It should be appreciated that numerous methods are known for functional validation, and that persons of skill in the art may select one or more depending on the validation needs (e.g., other assays that measure or approximate mitochondrial function). The present approach involves methods of function validation of mitoriboscin compounds. For example, the inventors assessed functional validation of three candidates using the Seahorse Analyzer, which quantitatively measures oxygen consumption rate (OCR) and extracellular acidification rate (ECAR). OCR is a surrogate marker for OXPHOS and ECAR is a surrogate marker for glycolysis and L-lactate production.

[3] = test system: Staph. aureus ATCC 25923 (MSSA); test: MIC by broth dilution method; format: cell-based
Description: as §1

[4] = test system: Strept. pyogenes ATCC 19615; test: MIC by broth dilution method; format: cell-based
Description: as §1

E. coli ATCC 25922 = test: MIC by broth dilution method; format: cell-based; details: E. coli ATCC 25922, 24 hours at 37° C.
Description: as §1

K. pneumoniae ATCC 13883 = test: MIC by broth dilution method; format: cell-based
Description: as §1

[5] = test system: twelve different cell lines, representing eight different cancer types; details: cited from earlier work
[6] = Staph. aureus ATCC 25923 (Table 3)

MIC 50% (P. auriginosa ATCC 27853): 16 µg/mL (≈ 37.7 µM)
MIC 99% (P. auriginosa ATCC 27853): 32 µg/mL (≈ 75.5 µM)
MIC 50% (MRSA ATCC 43300; MRSA ATCC 43300): 16 µg/mL (≈ 37.7 µM)
MIC 99% (MRSA ATCC 43300; MRSA ATCC 43300): >32 µg/mL
MIC 50% (C. albicans): 8 µg/mL (≈ 18.9 µM)
MIC 99% (C. albicans): 16 µg/mL (≈ 37.7 µM)
MIC 50% ([3]; MSSA ATCC 25923 (Table 4)): 4 µg/mL (≈ 9.44 µM)
MIC 99% ([3]; MSSA ATCC 25923 (Table 4)): 8 µg/mL (≈ 18.9 µM)
MIC 50% [3, 6]: 4 µg/mL (≈ 9.44 µM)
MIC 99% [3, 6]: 8 µg/mL (≈ 18.9 µM)
MIC 50% [4]: 4 µg/mL (≈ 9.44 µM)
MIC 99% [4]: 8 µg/mL (≈ 18.9 µM)
MIC 50% (E. coli ATCC 25922): >16 µg/mL
MIC 99% (E. coli ATCC 25922): >32 µg/mL
MIC 50% (K. pneumoniae ATCC 13883): 16 µg/mL (≈ 37.7 µM)
MIC 99% (K. pneumoniae ATCC 13883): 32 µg/mL (≈ 75.5 µM)
Compound: OC1C(NCc2ccccc2)CCCC1Oc1ccccc1Oc1ccc(Cl)cc1 (stereo not shown) [23/G4]
effect on viability of hTERT-BJ1 cells (hTERT-BJ1 cells): no effect
reduction of mammosphere formation (MCF7 cells [1]): 50%
sensitivity of MRSA (MRSA ATCC 43300; MRSA, summary of Table 4): sensitive
effect on overall cell viability of MCF7 monolayers (MCF7 cell monolayers; 500 nM and 2.5 μM): little or no effect
reduction of viability of MCF7 cells (MCF7 cell monolayers; 5 μM): 70%
reduction of ATP levels (MCF7 cells [2]; 500 nM): > 50%
reduction of ATP levels (MCF7 cells [2]; 2.5 μM, FIG. 7): ~75%
reduction in ATP levels (MCF7 cells [2]; 5 μM, FIG. 10): greater than 75%
increase in glycolysis rates (MCF7 cells [2]; ECAR): more than 1.5 fold
inhibition of mitochondrial oxygen-consumption (MCF7 cells [2]; FIGS. 7, 8 and 9): dose-dependently inhibited
rank order potency to reduce maximal respiration and ATP production (MCF7 cells [2]; top 10 hits, FIG. 10): top 6

Compound: CC[C@H]1OC(=O)[C@H](C)[C@@H](O[C@H]2C[C@@](C)(OC)[C@@H](O)[C@H](C)O2)[C@H](C)[C@@H](O[C@@H]2O[C@H](C)C[C@H](N(C)C)[C@H]2O)[C@](C)(O)C[C@@H](C)C(=O)[C@H](C)[C@@H](O)[C@]1(C)O [Erithromycin]
efficacy in cancer cell lines [5]: show efficacy

From patent publication US11311501B2, “Mitoriboscins: mitochondrial-based therapeutics targeting cancer cells, bacteria, and pathogenic yeast” (LUNELLA BIOTECH, INC., priority 2017, dated 2022)
